Results reported in a melting point compilation (Tetko et al.; mined from patent text by program, amines drawn as free bases though some values may be those of a salt).

Row | Compound | melting point [°C]
1 | COc1ccccc1Sc1c(Cl)ncnc1NS(=O)(=O)c1ccc(C(C)(C)C)cc1 | 186
2 | CC(C)OC(=O)C(=O)Nc1cc(Cl)ccc1O | > 300
3 | CC(=O)Nc1ccc2ncnc(Nc3cccc(Cl)c3)c2c1 | 260 to 262
4 | CCc1nc2c(C)cc(C)nc2n1Cc1ccc(C(Cc2ccccc2)C(C(=O)O)C(=O)O)cc1 (stereo not drawn) | 127 to 128
5 | O=S1(=O)NCCN(C2CC2)c2ccc(Oc3ccccc3)cc21 | 119
6 | COC(=O)C(Cc1ccc(OCCc2nc(-c3ccccc3)oc2C)cc1)C(=O)O (stereo not drawn) | 126 to 127
7 | CC(=Cc1cc(Br)ccc1O)[N+](=O)[O-] | 95 to 97
8 | CCOC(=O)Cc1c(-c2ccc(Cl)cc2)nn(-c2ccccc2)c1-c1ccc(Cl)cc1 | 120 to 122
9 | CCCCCCCCCCCCOc1cc(O)c(C(=O)c2ccccc2)c(OCCCCCCCCCCCC)c1 | 37 to 38
10 | Cc1nc2ccc(Cl)cc2c(=O)n1C1CCC(=O)NC1=O (stereo not drawn) | 276 to 278
11 | CC(c1nc2ccccc2c(=O)n1-c1ccc(F)cc1)N(Cc1cccnc1)C(=O)Cc1ccc(C(F)(F)F)cc1 (stereo not drawn) | 167
12 | O=C(c1ccccc1)N1CC(=O)N2CCc3ccccc3C2C1 (stereo not drawn) | 162 to 163
13 | CN(C)CCCn1c2c(c3cc(Br)ccc31)CCS(=O)(=O)CCC2 | 135 to 137
14 | Cc1cc(-n2ccnc2)c2cccc(OCc3c(Cl)ccc(S(=O)(=O)N4CCC[C@H]4C(=O)NCCCN4CCOCC4)c3Cl)c2n1 | 96
15 | CON=C1C=CC=CC1CC(=O)OC (stereo not drawn) | 96 to 97
16 | CCOC(=O)/C=C/c1ccc(C=Cc2nc(-c3ccco3)oc2C)cc1 | 123 to 124
17 | N#Cc1c(N2CCN(C(=O)c3cccs3)CC2)c2cccnc2n(Cc2ccc(F)cc2)c1=O | 271
18 | CC(=O)Nc1ccc(-c2ccc3c(c2)C(C)(C)OC(=O)N3)cc1F | 245 to 247
19 | CCn1nc(-c2ccc(OC)c(F)c2)c(-c2ccc(OC)cc2)cc1=O | 123 to 124
20 | Clc1ccc(N2CCN(Cc3n[nH]c4c3CCc3ccccc3-4)CC2)nc1 | 207 to 208
21 | O=[N+]([O-])c1cc(Cl)ccc1NCCO | 98 to 100
22 | CCS(=O)(=O)N[C@H](C(=O)NCCc1cc(Br)c(OCc2ccccc2)c(OC)c1)C(C)C | 128 to 130
23 | Cc1[nH]c2ccccc2c1C(=O)CCN(C)C | 172 to 175
24 | COC(=O)CN(C)c1cccc(Br)n1 | 47 to 48
25 | CCOC(=O)c1c(-c2cccc(Cl)c2)c2cc(C(c3nc(-c4ccccc4)cs3)n3ccnc3-c3ccccc3)ccc2[nH]c1=O (stereo not drawn) | 149

Row | Compound | melting point [°C]
26 | Cc1cc([N+](=O)[O-])ccc1Oc1cncc(Cl)c1 | 80 to 82
27 | COC(=O)C=Cc1ccc(OC)c(C)c1 | 70 to 73
28 | OC(CCCl)c1ccccc1 (stereo not drawn) | 56 to 57
29 | Cc1cc2c(cc1N(C)CC(C)C)N=C(c1cccc(-n3ncnc3CO)c1)CC(=O)N2 | 191
30 | N#Cc1c(Cl)c2cc(Cl)cnc2[nH]c1=O | 247
31 | O=[N+]([O-])c1ccc(-n2ccnc2SCc2ccccc2N2CCOCC2)nc1 | 199 to 202
32 | Cc1cccc(COc2cccc(OCc3ccc4cc(F)c(F)cc4n3)c2)c1OCC(=O)O | 94 to 95
33 | CCCn1c(C)nn(-c2ccc(N)cc2)c1=O | 139
34 | COC(=O)Nc1nc(-c2ccccc2)c(-c2nc3ccccc3c(=O)n2-c2ccc(C)cc2)s1 | > 275
35 | CCN(CC)C1=C2N=c3cc(Cl)ccc3=C2Oc2ccccc2N1C | 127 to 128
36 | Cc1cccc(C(=O)Nc2c[nH]nc2C(=O)NCCC#N)n1 | 225 to 227
37 | COc1ccc(COc2nc(C3CC3)c3cc(-c4cccc(Cl)c4)ccc3n2)cc1 | 158 to 159
38 | Cc1nc2c3c(ccn2c1C)C(=O)[C@@](C)(O)[C@@H](c1ccccc1)N3 | 240
39 | COc1cccc2sc(NC(=O)CO)nc12 | 193 to 195
40 | CC12C=CC(O)CC1=CCC1C2CCC2(C)C1CCC21OCCO1 (stereo not drawn) | 138 to 140
41 | Nc1cc(C(=O)O)cc(OCc2ccccc2)c1Cc1ccccc1 | 208 to 210
42 | CN1CCCC1Cc1cn(Cc2ccccc2)c2ccc(C(C#N)S(=O)(=O)N(C)C(c3ccccc3)c3ccccc3)cc12 (stereo not drawn) | 152 to 155
43 | COc1cc(C)c(C(=O)c2c(Cl)cccc2Cl)cc1OC | 101 to 103
44 | COC(=O)Nc1ccc(OCc2nc3ccccc3s2)c(Cl)c1 | 133 to 135
45 | O=c1[nH]c2ccc(F)cc2s1 | 188 to 189
46 | CC(C)(C)c1ccc(C(=O)NNS(=O)(=O)c2ccccc2)cc1 | 197 to 199
47 | COCCOc1ccc(/C=C/C(=O)NS(=O)(=O)NCCc2ccccc2)c(Oc2ncc(C(F)(F)F)cc2Cl)c1 | 85 to 85.5
48 | CCOC(=O)c1c(O)c2ccc(F)cc2c(=O)n1CC1CC1 | 88 to 89
49 | CCN(CC)CCNC(=O)c1ccc(NC(=O)c2ccc3c(c2)OCO3)cc1OC | 131
50 | COc1ccccc1-n1c(=O)[nH]c2cccnc21 | 130

Row | Compound | melting point [°C]
51 | Cc1c(Cl)c(Oc2c(Cl)cc(C(F)(F)F)cc2Cl)nn1C(=O)NCCCl | 141 to 143
52 | NC(C(=O)O)c1ccc(C(=O)O)cc1F (stereo not drawn) | 250 to 255
53 | CN(C)N=Cc1cn(C)nc1-c1ccc([N+](=O)[O-])o1 | 164 to 165
54 | CCNCC1CCN(c2c(F)c(F)c3c(=O)c(C(=O)O)cn(C4CC4)c3c2F)C1 (stereo not drawn) | 247 to 248
55 | COC(=O)c1ccccc1S(=O)(=O)NC(=O)Nc1nc(Cl)c(C)c(OC)n1 | 204 to 205
56 | Nc1nc2c(Cl)cc(F)c(-c3ncc(C(F)(F)F)cc3Cl)c2s1 | 230 to 235
57 | COc1cccc2c(=O)n3nc(C(=O)n4ccnc4)cc3[nH]c12 | 295 to 300
58 | O=c1[nH]c2sc3c(Cl)cccc3c2[nH]c1=O | > 300
59 | CC(C)c1cc(CCC(=O)NCc2cccc(NC(=N)c3cccs3)c2)cc(C(C)C)c1O | 144 to 145
60 | CC(C)n1nc(CC(=O)c2ccc(F)cc2)ccc1=O | 67 to 68
61 | S=C(NCc1ccc2c(c1)OCO2)N1CCc2c([nH]c3ccccc23)C1c1ccc2c(c1)OCO2 (stereo not drawn) | 97 to 100
62 | CCNS(=O)(=O)c1cccc(OCc2nc3ccccc3s2)c1 | 111 to 113
63 | C=CCc1cc(CC(=O)OC)ccc1OCc1ccc2ccccc2n1 | 71
64 | CC(NC(=O)Cc1cc(F)cc(F)c1)C(=O)NC1C(=O)NC(c2ccccn2)c2ccccc21 (stereo not drawn) | 100
65 | O=[N+]([O-])CC1C2(CCCC1(c1ccccc1)c1ccccc1)OCCO2 (racemic) | 148
66 | Cc1nc(-n2ccc(OCc3ccccc3)cc2=O)sc1C(=O)NCc1ccccc1 | 219 to 220
67 | CS(=O)(=O)Nc1cc2occc(=O)c2cc1O | > 250
68 | CC(=O)Nc1cc2c(c3c1OC(C)(C)C3)C(c1ccccc1)=NC(C)(C)C2 | 175 to 180
69 | CSc1ccc(-c2c(Cl)nc(Cl)nc2-c2ccccc2)cc1 | 88 to 90
70 | CC(=O)C=C1C=C(C(C)(C)C)C(=O)C(C(C)(C)C)=C1 | 70 to 72
71 | Cc1cc(OCc2cn(-c3ccc(C(F)(F)F)cn3)nc2C)ccc1CCC(=O)O | 144 to 145
72 | O=C(CN1CCCCC1)Nc1ccc(NC(=O)Nc2ccc(N(CCCl)CCCl)cc2)cc1 | 227 to 229
73 | CC(=O)NCc1cc(C(C)(C)C)c(O)c(C(C)(C)C)c1 | 80 to 84
74 | CC(=O)OCc1nc(C(C)C)c(Sc2cc(Cl)cc(Cl)c2)n1Cc1ccncc1 | 133 to 135
75 | Cc1oc(-c2ccco2)nc1CCOc1ccc(N)cn1 | 88 to 90

Row | Compound | melting point [°C]
76 | CSC(=Nc1ccccc1)N(c1ccccc1)c1nc(C)cc(C)n1 | 101 to 103
77 | CC(=O)Nc1ccc2c(c1)CCCCC2=O | 105
78 | NC(=O)c1ccc2ccn(C3CCN(CCc4ccc(F)cc4)CC3)c2c1 | 238 to 240
79 | O=C(O)Cc1ccccc1Oc1cccc(F)c1 | 81 to 84
80 | CCCCNC(=O)NS(=O)(=O)c1ccccc1S(=O)(=O)N(C)C(F)(F)C(F)F | 146 to 152
81 | CCCc1c(OCCCOc2ccc(-c3cc[nH]n3)c(OC)c2CCC)ccc2c1OC(C(=O)O)CC2 (stereo not drawn) | 156 to 158
82 | CC(Cc1ccccc1)(NC=O)c1ccccc1 (stereo not drawn) | 97 to 99
83 | CC(=O)Oc1cccc(-c2cc(-c3ccncc3)c(C#N)c(=O)[nH]2)c1 | 284 to 286
84 | C=CCn1c(C)c(C)c2cnnc(OCc3cccc(F)c3)c21 | 85 to 86
85 | CC(=O)c1cc(N2CCCC2)ccc1NC(=O)c1ccccc1OCc1ccccc1 | 160 to 161
86 | CCC(=O)Nc1cc(-c2c(-c3ccc(F)c(C)c3)nc3cccnn23)ccn1 | 166 to 167
87 | O=C(NCC(=O)c1cccs1)c1ccc(F)cc1 | 147 to 148
88 | CCCCCCN(CCCCCC)c1c(N[C@@H](Cc2cn(Cc3ccccc3)cn2)C(=O)O)c(=O)c1=O | 75 to 80
89 | CC(CC(=O)NC(C)(C)C#CCl)Oc1cncc(Cl)c1 (stereo not drawn) | 78 to 82
90 | COC(=O)ON(C)C(=O)C(C)Nc1c([N+](=O)[O-])cc(C)cc1[N+](=O)[O-] (stereo not drawn) | 112 to 113
91 | c1ccc(CNc2ccc3ccccc3c2-c2c(P(c3ccccc3)c3ccccc3)ccc3ccccc23)cc1 | 70.1
92 | C=C(C)CNC(=O)N1CC(Oc2ccc(C(F)(F)F)cc2)C1 | 101 to 102
93 | CCOC(=O)c1nnc(-c2cc3cc(Oc4ccc(S(C)(=O)=O)cc4)cc(OCc4ccccc4)c3[nH]2)s1 | 194 to 195
94 | N#Cc1cccc2c(Cl)ccc([N+](=O)[O-])c12 | 210 to 212
95 | CN(C)CCNC(=O)Nc1ccc(-c2cnc(COCc3cc4ccccc4o3)o2)cc1 | 150 to 154
96 | COC(=O)[C@H](Cc1ccccc1)NC(=O)c1ccc([N+](=O)[O-])cc1 | 115 to 116
97 | Cc1cc(C(=O)O)ccc1-c1ccc2cc3c(cc2c1)C(C)(C)CCC3(C)C | 248 to 250
98 | O=C(O)CCCCCNC(=O)Cc1ccsc1 | 78.6 to 79.5
